Legend:
A2780 cells = assay: CCK-8 cell viability assay, A2780; assay type: cell-based; details: 24 hours of treatment
Experimental: Referring now to FIG. 13A. Cell Viability and Apoptosis of Ovarian and p53 null Lung Cancer Cell Lines. A) Ovarian cancer cell line A2780 and the p53 null lung cancer cell line, H1299, were treated with log dosing of MCI13E and viability analyzed via CCK-8 metabolic assay as described in Methods. Data is presented as cell survival which was determined as a percent of the untreated control cells and represents the average and standard deviation of triplicate experiments Referring now to FIG. 13B.
Ovarian cancer cell line, A2780, cells are difficult to use for crystal violet analysis due to their enhanced sensitivity to treatment. Therefore, the cell counting kit-8 (CCK) was used to determine the viability of A2780 cells in addition to the p53 null lung cancer cell line H1299, following a 24 hour treatment with log dosing of SMI. Cells were plated (1×10^5) in 24-well dishes and treated with inhibitor after 24 hours. After treatment media was aspirated and 1 ml of DMEM was added in addition to 100 μL of CCK-8 solution. Absorbance at 450 nm was measured over 4 hours in a SpectraMax M5 plate reader and values are presented as the percent untreated control at the two hour time point for three separate plate replicates each containing three assays per plate.

[1] = molecular target: T1, full-length heterotrimeric RPA (Homo sapiens, UniProt P27694); assay: Reversibility of full-length RPA inhibition: dialysis, then EMSA; assay type: binding; details: overnight dialysis, then EMSA with 34-base DNA
T1 construct: Human full-length, un-tagged heterotrimeric RPA (RPA) was purified as previously describe; made in house
T1 sequence (P27694 whole entry): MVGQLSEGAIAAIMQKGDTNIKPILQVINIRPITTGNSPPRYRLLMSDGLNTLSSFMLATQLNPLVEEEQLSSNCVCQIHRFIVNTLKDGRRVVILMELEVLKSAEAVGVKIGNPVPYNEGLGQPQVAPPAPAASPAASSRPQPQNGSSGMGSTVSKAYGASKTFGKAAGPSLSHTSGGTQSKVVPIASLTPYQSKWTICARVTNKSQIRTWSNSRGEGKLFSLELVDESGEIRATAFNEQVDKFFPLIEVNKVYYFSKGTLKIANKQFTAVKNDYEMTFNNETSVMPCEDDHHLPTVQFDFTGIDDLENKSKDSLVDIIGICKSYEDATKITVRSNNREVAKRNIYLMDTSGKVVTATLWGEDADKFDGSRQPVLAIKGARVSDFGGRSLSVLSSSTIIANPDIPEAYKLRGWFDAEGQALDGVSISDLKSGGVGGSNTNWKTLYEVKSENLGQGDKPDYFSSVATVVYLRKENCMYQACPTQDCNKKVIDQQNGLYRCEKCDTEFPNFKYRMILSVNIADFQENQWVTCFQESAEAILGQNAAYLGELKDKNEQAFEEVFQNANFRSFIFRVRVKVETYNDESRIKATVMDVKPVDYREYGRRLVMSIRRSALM
T1 sequence (P15927 whole entry partner): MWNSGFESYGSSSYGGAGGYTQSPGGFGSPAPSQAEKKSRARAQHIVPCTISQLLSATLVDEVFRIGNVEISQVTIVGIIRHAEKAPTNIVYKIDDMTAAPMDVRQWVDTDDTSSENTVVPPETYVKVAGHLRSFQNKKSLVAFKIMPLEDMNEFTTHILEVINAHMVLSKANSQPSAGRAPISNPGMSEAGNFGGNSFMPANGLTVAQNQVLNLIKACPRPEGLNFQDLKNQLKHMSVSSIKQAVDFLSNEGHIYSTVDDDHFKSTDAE
T1 sequence (P35244 whole entry partner): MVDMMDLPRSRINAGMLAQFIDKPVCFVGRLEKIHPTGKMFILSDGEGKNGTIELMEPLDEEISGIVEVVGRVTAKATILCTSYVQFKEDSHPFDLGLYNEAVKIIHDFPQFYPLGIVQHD
Experimental: Considering the differential inhibition observed between the anhydride and halo esters with respect to specificity, experiments were carried out to determine if the isoborneol halo-esters inhibited full-length RPA in an irreversible fashion. Full-length RPA was mixed with MCI13E or vehicle control and the reaction mixtures were then dialyzed overnight. Referring now to FIG. 5. Gel showing irreversible inactivation of full-length heterotrimeric RPA by MCI13E. Incubation of RPA with MCI13E, dialysis and recovery was performed as described for FIG. 3. DNA binding activity of the resulting protein was assessed by EMSA using a 5′-[^32P]-ss 34-base DNA as described in “Methods”. Lanes 1-4 pre-dialysis, lanes 5 and 6 post dialysis. […] In fact, the degree of inhibition was similar to that observed for the MCI13E treated RPA before dialysis (FIG. 5 lanes 3 and 4). […] This activity is consistent with MCI13E and F and their reaction with RPA serving as a pharmacodynamic marker of RPA inhibition or as a biomarker for RPA expression and activity.
In order to assess the reversibility of select SMIs, the indicated SMI was pre-incubated with RPA or the DBD-A/B construct for 30 minutes at room temperature. […] The resulting protein was recovered and concentration determined by Bradford analysis. […]

A549 cells = assay: Cell cycle analysis by PI staining, A549; assay type: cell-based; details: A549, increasing doses
Experimental: Referring now to FIG. 12A and FIG. 12B. Cell Cycle Analysis of Lung Cancer Cell Lines Following Treatment with MCI13E. A549. Referring now to FIG. 12C, and FIG. 12D. H460 were treated as indicated and analyzed for the cell cycle distribution using PI staining and flow cytometry. Quantification of data following 6 hours and 12 hour treatment with 10 and 20 μM MCI13E was performed for both A549 (FIG. 12E) and H460 (FIG. 12F) Data presented represent the averages of three replicate experiments.
(§1) Cell cycle analysis was also performed on the three lung cancer cell lines using PI staining to identify the potential arrest resulting from treatment with SMIs. Briefly, cells were plated in 6-well dishes (2×10^5 cells total) and treated for 6 or 12 hours with increasing concentration of inhibitor. Adherent and non-adherent cells were collected, washed twice with PBS containing 2% bovine serum albumin (BSA), resuspended in 70% cold EtOH and incubated overnight at −20° C. Cells were again collected and stained with PI (1 μg/mL) and RNaseA (25 μg/mL) for 30 min. at 37° C. followed by 1.5 hours at 4° C. in the dark. Flow cytometry was performed as above and data were analyzed on a histogram with events plotted against the FL2-A parameter. Cell cycle distribution was analyzed using the ModFit software and data presented represents three independent trials.

H1299 cells = assay: Cell cycle analysis by PI staining, H1299; assay type: cell-based; details: 6, 12 and 24 hours of treatment
Experimental: as §1, with “Briefly, cells were plated in 6-well dishes (2×10^5 cells total) and treated for 6 or 12 hours with increasing concentration of inhibitor.” left out

For CC1(C)C2CCC1(C)C(OC(=O)CBr)C2 (racemic) [MCI13E, (+/−)-Isobornyl bromoacetate], the IC50 (A2780 cells) was ~1000 nM, the “Reversibility of full-length RPA inhibition” value [1] was “inhibition was not reversed by dialysis” and the Cell cycle distribution (A549 cells) was “greater proportion of cells in the G1 phase”. For the same compound, the Cell cycle distribution (H1299 cells) was “increased percentage of cells accumulated in S-phase”.
